Values quoted from earlier work as cited in patent US20180116967A1, “EXTENDED RELEASE TABLET OF CYCLOBENZAPRINE” (SYNMOSA BIOPHARMA CORPORATION, priority 2015, published 2018).

System: plasma protein

## CN(C)CCC=C1c2ccccc2C=Cc2ccccc21 [cyclobenzaprine, 3-(5H-dibenzo[a,d]cyclohepten-5-ylidene)-N,N-dimethyl-1-propanamine]
  drug coupled to plasma protein: About 93%
